Ratio and k cat data for 28 compounds are collected here from ChEMBL document CHEMBL1129640, “Assessment of structural requirements for the monoamine oxidase-B-catalyzed oxidation of 1,4-disubstituted-1,2,3,6-tetrahydropyridine derivatives related to the neurotoxin 1-methyl-4-phenyl-1,2,3,6-tetrahydropyridine” (J Med Chem, 1996).

Data set [1] addresses T1, Amine oxidase [flavin-containing] B (Bos taurus, UniProt P56560).
T1 sequence (P56560 whole entry): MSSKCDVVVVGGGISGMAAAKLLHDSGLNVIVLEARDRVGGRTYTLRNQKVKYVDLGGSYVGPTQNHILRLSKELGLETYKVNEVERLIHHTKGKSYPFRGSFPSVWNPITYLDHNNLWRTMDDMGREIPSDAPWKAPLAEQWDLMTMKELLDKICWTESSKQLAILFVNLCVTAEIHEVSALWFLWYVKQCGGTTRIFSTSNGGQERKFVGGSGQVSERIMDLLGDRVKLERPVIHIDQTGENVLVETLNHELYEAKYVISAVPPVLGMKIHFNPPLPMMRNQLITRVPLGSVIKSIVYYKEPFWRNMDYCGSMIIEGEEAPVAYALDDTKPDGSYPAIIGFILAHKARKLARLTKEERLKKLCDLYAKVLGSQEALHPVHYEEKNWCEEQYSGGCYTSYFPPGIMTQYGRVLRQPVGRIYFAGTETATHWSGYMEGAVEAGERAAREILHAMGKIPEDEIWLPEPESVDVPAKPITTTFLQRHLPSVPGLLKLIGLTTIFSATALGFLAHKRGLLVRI
The experiment in a line: Ratio of Kcat and KM against monoamine oxidase B (MAO-B) from beef liver was calculated. The note with it: cattle.

Data set [2] has as its target T1, Amine oxidase [flavin-containing] B. Kind of data set: Catalytic constant was measured against monoamine oxidase B (MAO-B) from beef liver. The note with it: cattle.

For the compound `C1=C(Oc2cccs2)CC[N+](C2CC2)=C1`, the Ratio in data set [1] was 1900.
`CN1CC=C(c2ccc(N)cc2)CC1`: the Ratio in data set [1] is 54.
On the same count and under the same terms, with `Clc1ccc(C2=CCNCC2)cc1` the figure was 382; with `CCCN1CC=C(c2ccccc2)CC1`, 4; with `C=CC1=CCN(C)CC1`, 2370.
Still for that read-out and setting: then `CCOC(=O)C1=CCN(C)CC1`, with 433.
Turning to `CN1CC=C(OC(=O)N(C)c2ccccc2)CC1`, the Ratio in data set [1] was 67.
Turning to `CN1CC=C(C(C)(C)C)CC1`, the Ratio in data set [1] is recorded as 92.
Still for that read-out and setting: with `Cc1ccccc1C1=CC=[N+](C2CC2)CC1` the figure was 630.
Turning to `CN1CC=C(c2ccccc2)CC1`, the k cat in data set [2] came to 3.4 s⁻¹.
With `Cn1cccc1C1=CC=[N+](C2CC2)CC1`, the Ratio in data set [1] is 413.
On the same count and under the same terms, with `CN1CC=C(c2cccs2)CC1` the figure was 55; with `CN1CC=C(Cc2ccccc2)CC1`, 3580; with `C1=C(Cc2ccccc2)CC[N+](C2CC2)=C1`, 1538.
In the case of `CN1CC=C(OC(=O)N(C)C)CC1`, in data set [1], the Ratio is on record as 57.
Turning to `CN1CC=C(C2CC2)CC1`, in data set [1], the Ratio is on record as 974.
Same read-out and setting: with `C1=C(c2ccccc2)CCNC1` the figure was 319; with `O=C([O-])C(=O)O.O=[N+]([O-])c1ccc(OC2=CC=[N+](C3CC3)CC2)cc1`, 150; with `Clc1ccc(OC2=CC=[N+](C3CC3)CC2)cc1`, 136.
`CN1CC=C(c2ccc([N+](=O)[O-])cc2)CC1`: the Ratio in data set [1] is 16.
On the same count and under the same terms, with `C#CC1=CCN(C)CC1` the figure was 790.
Regarding `CN1CC=C(C2CCCCC2)CC1`, in data set [1], the Ratio was 688.
As for `C1=C(Oc2ccccc2)CC[N+](C2CC2)=C1`, in data set [1], the Ratio is on record as 1650.
Same read-out and setting: with `CN1CC=C(CCc2ccccc2)CC1` the figure was 1130.
As for `CN1CC=C(Cn2cccc2)CC1`, the Ratio in data set [1] is given as 347.
`C[C@@H]1NC(=O)[C@H](NC(=O)[C@@H](N)Cc2ccc(O)cc2)C(C)(C)SSC(C)(C)[C@@H](C(O)O)NC(=O)[C@H](Cc2ccccc2)NC1=O`: the Ratio in data set [1] was 19.
As for `CN1CC=C(/C=C\c2ccccc2)CC1`, the Ratio in data set [1] is reported as 912.
Regarding `CN1CC=C(Oc2ccccc2)CC1`, the Ratio in data set [1] is reported as 4151.
